Data reported in ChEMBL document CHEMBL5442219.

Target: Histamine H4 receptor (Homo sapiens) (UniProt Q9H3N8)
Details: Compound concentration 10 µM

Histamine H4 receptor (Homo sapiens), sequence (Q9H3N8 whole entry): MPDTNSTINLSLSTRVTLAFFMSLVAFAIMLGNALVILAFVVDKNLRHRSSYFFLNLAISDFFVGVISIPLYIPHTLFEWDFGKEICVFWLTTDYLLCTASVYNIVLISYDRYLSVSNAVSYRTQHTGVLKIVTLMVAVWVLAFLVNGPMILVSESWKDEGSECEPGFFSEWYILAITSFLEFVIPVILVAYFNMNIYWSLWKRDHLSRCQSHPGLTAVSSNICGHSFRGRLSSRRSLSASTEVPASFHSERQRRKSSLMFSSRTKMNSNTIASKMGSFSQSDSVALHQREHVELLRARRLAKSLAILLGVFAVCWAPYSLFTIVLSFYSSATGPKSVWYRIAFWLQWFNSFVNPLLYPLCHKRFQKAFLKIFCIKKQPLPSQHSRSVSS

Row | SMILES | inhibition [%]
1 | CN(C(=O)Cc1ccc(Cl)c(Cl)c1)C(CN1CCCC1)c1cccc(OCC(=O)O)c1 (stereo unspecified) | 13.7
2 | CC(C)NCC(O)COc1cccc2ccccc12 (stereo unspecified) | 10.8
3 | O=C(Nc1ccc(Cl)cc1)Nc1cccc(-c2cccc(N3CCCC3)n2)c1 | -1.99
4 | C[C@@H](N)Cc1c[nH]cn1 | 95.7
5 | N#Cc1ccc2[nH]cc(CCCCN3CCN(c4ccc5oc(C(N)=O)cc5c4)CC3)c2c1 | 24.6
6 | COc1ccc(/C=C/CCCCOc2ccc(C(=O)c3cccc(C(=O)O)c3)cc2CCC(=O)O)cc1 | 4.74
7 | COc1cccc([C@H](O)C2CCN(CCc3ccc(F)cc3)CC2)c1OC | 3.4
8 | Cc1nc(C(=O)N2CCC[C@H]2Cc2nnc(-c3ccccc3)o2)c(-c2ccccc2F)s1 | -2.37
9 | CNC[C@H](O)c1cccc(O)c1 | 19.6
10 | OC1(c2ccc(Cl)cc2)CCN(Cc2c[nH]c3ccccc23)CC1 | 13.8
11 | O=C(c1cc2c(cc1F)OC(c1ccc(F)cc1)(c1ccc(Cl)cc1Cl)O2)N1CCOCC1 (stereo unspecified) | 32.4
12 | COc1cc(-n2cnc3cc(-c4ccc(Cl)cc4)sc3c2=O)ccc1OCCN1CCCC1 | 58.1
13 | O=C(Cc1ccc(Cl)c(Cl)c1)N1CCCC[C@H]1CN1CCCC1 | -9.98
14 | COc1ccccc1CN[C@H]1C2CCN(CC2)[C@H]1C(c1ccccc1)c1ccccc1 | 27.6
15 | CC[C@@H]1CN2C(=O)N(C)c3nc(-c4ccccc4)[nH]c3C2=N1 | -3.92
16 | CCCCC#Cc1nc(NC)c2ncn([C@@H]3O[C@H](CO)[C@@H](O)[C@H]3O)c2n1 | -7.18
17 | CCCCCNC(=O)NS(=O)(=O)c1cc([N+](=O)[O-])ccc1NC1CCCCC1 | 16.9
18 | CC(C)NCC(O)c1ccc(N)c(C#N)c1 (stereo unspecified) | 0.52
19 | NC[C@@H]1O[C@H](C23CC4CC(CC(C4)C2)C3)Cc2c1ccc(O)c2O | -6.56
20 | COc1cccc([C@@H](C)NCCCc2ccccc2Cl)c1 | 0
21 | Cc1cccc([C@H](C)c2c[nH]cn2)c1C | 11.3
22 | O=C(Cc1ccccc1)Nc1nc2ccc(Cl)cc2c2nc(-c3ccco3)nn12 | 6.75

Row | SMILES | inhibition [%]
23 | N#Cc1c(N)nc(SCC(N)=O)c(C#N)c1-c1ccc(OCC2CC2)cc1 | 14.3
24 | C[C@H](NC[C@H](O)CP(=O)(O)CC1CCCCC1)c1ccc(Cl)c(Cl)c1 | 1.86
25 | CCCCN(CC)c1nc(C)nc2c1c(C)cn2-c1c(C)cc(C)cc1C | 2.86
26 | CCCCN1CCC(COC(=O)c2cc(Cl)c(N)c3c2OCCO3)CC1 | -1.37
27 | O=S1(=O)c2cccc3cccc(c23)N1CCCN1CCN(c2ccc(F)cc2)CC1 | 5.54
28 | CCCCc1nc(Cl)c(CO)n1Cc1ccc(-c2ccccc2-c2nnn[nH]2)cc1 | 7.13
29 | CCc1ccc(OCc2ccccc2C(=O)Nc2ccc3nc(C)cc(N)c3c2)cc1 | 36.6
30 | O=c1ccn([C@@H]2O[C@H](COP(=O)(O)OP(=O)(O)O)[C@@H](O)[C@H]2O)c(=O)[nH]1 | 7.98
31 | CN1C(=O)[C@@H](NC(=O)c2cc3ccccc3[nH]2)N=C(c2ccccc2)c2ccccc21 | -4.47
32 | COc1ccc(Br)cc1S(=O)(=O)NC(=O)/C=C/c1ccccc1Cc1ccc2ccccc2c1 | -5.64
33 | CCCCN(CCCC)C(=O)CN1C[C@@H](c2ccc3c(c2)OCO3)[C@H](C(=O)O)[C@H]1c1ccc(OC)cc1 | 4.49
34 | CCCSc1nc(N[C@@H]2C[C@H]2c2ccc(F)c(F)c2)c2nnn([C@@H]3C[C@H](OCCO)[C@@H](O)[C@H]3O)c2n1 | -2.55
35 | CCOC(=O)c1c(C)[nH]c2ccc3c(c12)CN1CCc2cc(OC)ccc2C1O3 (stereo unspecified) | 29.1
36 | COc1ccc(S(=O)(=O)N2c3ccc(Cl)cc3[C@](O)(c3ccccc3Cl)[C@@H]2C(=O)N2CCC[C@H]2C(N)=O)cc1OC | 21.7
37 | N=C(N)SCCc1c[nH]cn1 | 111
38 | COC(=O)C1=C(C)NC(C)=C(C(=O)OCCCN2CCC(c3ccccc3)(c3ccccc3)CC2)[C@H]1c1cccc([N+](=O)[O-])c1 | 27.4
39 | CN1CC(=O)N=C1NC(=O)Nc1cccc(Cl)c1 | -9.18
40 | Cc1cc(NC(=O)Nc2ccc(N(C)C)cc2)c2cc(F)cc(F)c2n1 | 5.25
41 | CCN(CC)CCCCC1CCN(CC(=O)N2c3ccccc3C(=O)Nc3cccnc32)CC1 | 21.4
42 | Cc1cc(C)cc(C(=O)N(C)[C@H](Cc2ccc(-c3ccccc3)cc2)C(=O)N[C@@H](Cc2c[nH]c3ccccc23)C(=O)O)c1 | -4.33
43 | COc1ccc(C2(O)OC(=O)C(c3ccc4c(c3)OCO4)=C2Cc2cc(OC)c(OC)c(OC)c2)cc1 (stereo unspecified) | 14.6
44 | CN(C)C(=O)C(CCN1CCC(O)(c2ccc(Cl)cc2)CC1)(c1ccccc1)c1ccccc1 | 7.53

Row | SMILES | inhibition [%]
45 | Cc1nc2sccn2c(=O)c1CCN1CCC(=C(c2ccc(F)cc2)c2ccc(F)cc2)CC1 | 59
46 | Cc1c(OCc2cccc(-c3ccc(C(=O)O)cc3)c2)cc2c(c1C)C(=O)C(C1CCCC1)C2 (stereo unspecified) | 14.3
47 | CCc1cc(C(C)=O)c(O)cc1OCCCCCC(C)(C)c1nn[nH]n1 | 34.3
48 | Cc1nc(-c2ccc(-c3ccc(C(=O)N4CCc5cc6c(cc54)C4(CCN(C)CC4)CO6)cc3)c(C)c2)no1 | 20.5
49 | S=C(NCCCc1c[nH]cn1)NCCCN(Cc1ccc(Cl)c(Cl)c1)c1ccc(Br)cn1 | 99.3
50 | C=CCN1C[C@H](C)N([C@H](c2ccc(C(=O)N(CC)CC)cc2)c2cccc(O)c2)C[C@H]1C | -9.85
51 | COc1ccc(NS(=O)(=O)c2sc3ccc(Cl)cc3c2C)cc1N1CCNCC1 | 18.2
52 | C[C@@H](NCCc1ccc(O)cc1)[C@@H](O)c1ccc(O)cc1 (relative stereo) | 5.86
53 | COc1ccc(OC(F)(F)F)cc1CN[C@H]1CCCN[C@H]1c1ccccc1 | 1.14
54 | CC(C)(C)NC[C@H](O)COc1nsnc1N1CCOCC1 | 3.02
55 | Cc1ccccc1C(=O)Nc1ccc(C(=O)N2CCCC(O)c3cc(Cl)ccc32)c(C)c1 (stereo unspecified) | 3.66
56 | Cc1csc2c(N[C@@H](C)CN3CCN(S(=O)(=O)c4ccc(Cl)c(Cl)c4)CC3)ncnc12 | 9.69
57 | COc1cc2c(CCNC(C)=O)c[nH]c2cc1Cl | 2.03
58 | C[C@H](Cc1cc2c(c(C(N)=O)c1)N(CCCO)CC2)NCCOc1ccccc1OCC(F)(F)F | -6.83
59 | CC(C)(N)C(=O)N[C@H](COCc1ccccc1)C(=O)N1CCC2(CC1)CN(S(C)(=O)=O)c1ccccc12 | 4.09
60 | Cc1cccc(NC(=O)N[C@@H]2N=C(c3ccccc3)c3ccccc3N(C)C2=O)c1 | 18.3
61 | Nc1nc2c(c(N3CCNCC3)n1)CCC1=C2[C@@H]2CCCC[C@@H]2O1 | 89.8
62 | CN1C2CCC1CC(OC(c1ccc(F)cc1)c1ccc(F)cc1)C2 (stereo unspecified) | 67.8
63 | CCCCCNC(=N)N/N=C/c1c[nH]c2ccc(OC)cc12 | 27.9
64 | Oc1ccc2c3c1O[C@H]1c4[nH]c5c(c4C[C@@]4(O)[C@@H](C2)N(CC2CC2)CC[C@]314)C[C@@]1(O)[C@H]2Cc3ccc(O)c4c3[C@@]1(CCN2CC1CC1)[C@H]5O4 | 1.48
65 | Clc1cccc(COc2cncc(N3CCNCC3)n2)c1 | 49.1
66 | C[C@@H](NCCCc1cccc(C(F)(F)F)c1)c1cccc2ccccc12 | 14
